Measured values reported in patent US20230135093A1, “TRIAZOLYL DERIVATIVES AS GABA A ALPHA5 PAM” (Hoffmann-La Roche Inc., priority 2020, published 2023).
pKi: −log10 of the molar value.

Experiments:
[1] = biological target: T1, h-GABA-A α5β3γ2 (Homo sapiens, UniProt P18507+P31644); assay: Two-electrode voltage clamp electrophysiology in Xenopus oocytes expressing GABAA receptors (modulation of GABA EC20 current); assay type: cell-based; conditions: Table 1; for Efficacy (GABA) %: % modulation of GABA EC20 = 100*(Fold increase-1); for Fold increase h-GABA-A α5β3γ2 oocyte: Xenopus oocytes, GABA EC20, test compound at approximatively 30 fold its Ki
T1 construct: expressed in transfected cells; host or cells: Xenopus laevis oocytes, micro-injected with subunit RNA
How it was run: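 Oocytes injected with α5β3γ2 subunit RNA, recorded 3-5 days later by two-electrode clamp at −80 mV, room temperature, pH 7.4. The compound, at ~30-fold its Ki, was co-applied during a second GABA EC20 pulse. Efficacy was the extremum of the point-by-point second/first current ratio, given as % modulation (100×(fold−1)); n≥3 oocytes.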

[2] = biological target: T1, h-GABA-A α5β3γ2; assay: [3H]flumazenil competition binding assay on membranes of HEK293 cells expressing GABAA receptors; conditions: Table 1; displacement of [3H]-Flumazenil (0.5 nM), HEK293 cells expressing human receptors, means of two determinations
How it was run: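 Membranes from HEK293 cells transiently expressing human α5β3γ2 were incubated 1 h at 4 °C in Krebs-tris pH 7.5 with 0.5 nM [3H]flumazenil and test compound. Nonspecific binding was set with 10^−5 M diazepam. Bound radioactivity was filtered and counted. Ki is the mean of two determinations.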

In the case of Cn1nnc(-c2ccc(Cl)cc2F)c1Cn1ncc(N2CC(OCC3CC3)C2)cc1=O [Example 28, 2-[[5-(4-chloro-2-fluoro-phenyl)-3-methyl-triazol-4-yl]methyl]-5-[3-(cyclopropyl-methoxy)azetidin-1-yl]pyridazin-3-one], the “Efficacy (GABA) %” value [1] was 115%, the “Fold increase h-GABA-A α5β3γ2 oocyte” value [1] was 2.15 and the pKi [2] was 7.74.
In the case of Cn1nnc(-c2ccc(C(F)(F)F)cc2F)c1Cn1ncc(N2CC(OC(F)F)C2)cc1=O [Example 71, 5-[3-(difluoromethoxy)azetidin-1-yl]-2-[[5-[2-fluoro-4-(trifluoromethyl)phenyl]-3-methyl-triazol-4-yl]methyl]pyridazin-3-one], the “Efficacy (GABA) %” value [1] was 75%, the “Fold increase h-GABA-A α5β3γ2 oocyte” value [1] was 1.75 and the pKi [2] was 7.91.
For CCn1nnc(-c2ccc(Cl)cc2F)c1Cn1ncc(-c2cnc(OC)c(Cl)c2)cc1=O [Example 110, 2-((4-(4-chloro-2-fluorophenyl)-1-ethyl-1H-1,2,3-triazol-5-yl)methyl)-5-(5-chloro-6-methoxypyridin-3-yl)pyridazin-3(2H)-one], the “Efficacy (GABA) %” value [1] was 139%, the “Fold increase h-GABA-A α5β3γ2 oocyte” value [1] was 2.39 and the pKi [2] was 8.06.
For Cn1nnc(-c2ccc(Cl)cc2F)c1Cn1ncc(N2CC(Oc3cncc(C(F)(F)F)n3)C2)cc1=O [Example 98, 2-[[5-(4-chloro-2-fluoro-phenyl)-3-methyl-triazol-4-yl]methyl]-5-[3-[6-(trifluoro-methyl)pyrazin-2-yl]oxyazetidin-1-yl]pyridazin-3-one], the “Efficacy (GABA) %” value [1] was 58%, the “Fold increase h-GABA-A α5β3γ2 oocyte” value [1] was 1.58 and the pKi [2] was 8.10.
With Cn1nnc(-c2ccc(Cl)cc2F)c1Cn1ncc(N2CC3(CCCCO3)C2)cc1=O [Example 95, 2-[[5-(4-chloro-2-fluoro-phenyl)-3-methyl-triazol-4-yl]methyl]-5-(5-oxa-2-azaspiro[3.5]nonan-2-yl)pyridazin-3-one] the “Efficacy (GABA) %” value [1] was 58%, the “Fold increase h-GABA-A α5β3γ2 oocyte” value [1] was 1.58 and the pKi [2] was 7.95.
With CCn1nnc(-c2ccc(Cl)cc2F)c1Cn1ncc(-c2cccc(C#N)n2)cc1=O [Example 111, 6-(1-((4-(4-chloro-2-fluorophenyl)-1-ethyl-1H-1,2,3-triazol-5-yl)methyl)-6-oxo-1,6-dihydropyridazin-4-yl)picolinonitrile] the “Efficacy (GABA) %” value [1] was 290%, the “Fold increase h-GABA-A α5β3γ2 oocyte” value [1] was 3.9 and the pKi [2] was 7.62.
For CCn1nnc(-c2ccc(Cl)cc2F)c1Cn1ncc(N2CC(OC(F)F)C2)cc1=O [Example 88, 2-[[5-(4-chloro-2-fluoro-phenyl)-3-ethyl-triazol-4-yl]methyl]-5-[3-(difluoromethoxy)azetidin-1-yl]pyridazin-3-one], the “Efficacy (GABA) %” value [1] was 126%, the “Fold increase h-GABA-A α5β3γ2 oocyte” value [1] was 2.26 and the pKi [2] was 8.15.
For CCn1nnc(-c2ccc(Cl)cc2F)c1Cn1ncc(N2CC(OCC(F)F)C2)cc1=O [Example 86, 2-[[5-(4-chloro-2-fluoro-phenyl)-3-ethyl-triazol-4-yl]methyl]-5-[3-(2,2-difluoro-ethoxy)azetidin-1-yl]pyridazin-3-one], the “Efficacy (GABA) %” value [1] was 136%, the “Fold increase h-GABA-A α5β3γ2 oocyte” value [1] was 2.36 and the pKi [2] was 7.97.
With Cc1ccc(-c2nnn(C)c2Cn2ncc(N3CCOCC3)cc2=O)cn1 [Example 9, 2-[[3-methyl-5-(6-methyl-3-pyridyl)triazol-4-yl]methyl]-5-morpholino-pyridazin-3-one] the “Efficacy (GABA) %” value [1] was 135%, the “Fold increase h-GABA-A α5β3γ2 oocyte” value [1] was 2.35 and the pKi [2] was 7.77.
For Cn1nnc(-c2ccc(Cl)cc2F)c1Cn1ncc(N2CC(Oc3ccnc(C(F)(F)F)n3)C2)cc1=O [Example 100, 2-[[5-(4-chloro-2-fluoro-phenyl)-3-methyl-triazol-4-yl]methyl]-5-[3-[2-(trifluoromethyl)pyrimidin-4-yl]oxyazetidin-1-yl]pyridazin-3-one], the “Efficacy (GABA) %” value [1] was 79%, the “Fold increase h-GABA-A α5β3γ2 oocyte” value [1] was 1.79 and the pKi [2] was 7.80.
In the case of Cc1nnn(-c2ccc(Cl)cc2)c1Cn1ncc(N2C[C@@H](C)O[C@@H](C)C2)cc1=O [Example 20, 2-[[3-(4-chlorophenyl)-5-methyl-triazol-4-yl]methyl]-5-[(2R,6S)-2,6-dimethylmorpholin-4-yl]pyridazin-3-one], the “Efficacy (GABA) %” value [1] was 108%, the “Fold increase h-GABA-A α5β3γ2 oocyte” value [1] was 2.08 and the pKi [2] was 8.08.
For Cc1nnn(-c2ccc(Cl)cc2F)c1Cn1ncc(N(C)C)cc1=O [Example 5, 2-((3-(4-chloro-2-fluoro-phenyl)-5-methyl-triazol-4-yl)methyl)-5-(dimethylamino)pyridazin-3-one], the “Efficacy (GABA) %” value [1] was 58%, the “Fold increase h-GABA-A α5β3γ2 oocyte” value [1] was 1.58 and the pKi [2] was 7.74.
In the case of CCn1nnc(-c2ccc(Cl)cc2F)c1Cn1ncc(N2CC3(CC[C@H](F)CO3)C2)cc1=O [Example 124, (S)-2-((4-(4-chloro-2-fluorophenyl)-1-ethyl-1H-1,2,3-triazol-5-yl)methyl)-5-(7-fluoro-5-oxa-2-azaspiro[3.5]nonan-2-yl)pyridazin-3(2H)-one], the “Efficacy (GABA) %” value [1] was 105%, the “Fold increase h-GABA-A α5β3γ2 oocyte” value [1] was 2.05 and the pKi [2] was 7.99.
In the case of C[C@@H]1CCCN1c1cnn(Cc2c(-c3ccc(Cl)nc3)nnn2C)c(=O)c1 [Example 109, 2-[[5-(6-chloro-3-pyridyl)-3-methyl-triazol-4-yl]methyl]-5-[(2R)-2-methylpyrrolidin-1-yl]pyridazin-3-one], the “Efficacy (GABA) %” value [1] was 75%, the “Fold increase h-GABA-A α5β3γ2 oocyte” value [1] was 1.75 and the pKi [2] was 8.96.
For CCn1nnc(-c2ccc(Cl)cc2F)c1Cn1ncc(N2CCN(C(C)C)[C@@H](C)C2)cc1=O [Example 92, 2-[[5-(4-chloro-2-fluoro-phenyl)-3-ethyl-triazol-4-yl]methyl]-5-[(3S)-4-isopropyl-3-methyl-piperazin-1-yl]pyridazin-3-one], the “Efficacy (GABA) %” value [1] was 159%, the “Fold increase h-GABA-A α5β3γ2 oocyte” value [1] was 2.59 and the pKi [2] was 8.25.
For Cc1ccnn1C1CN(c2cnn(Cc3c(-c4ccc(Cl)cc4F)nnn3C)c(=O)c2)C1 [Example 113, 2-[[5-(4-chloro-2-fluoro-phenyl)-3-methyl-triazol-4-yl]methyl]-5-[3-(5-methylpyrazol-1-yl)azetidin-1-yl]pyridazin-3-one], the “Efficacy (GABA) %” value [1] was 98%, the “Fold increase h-GABA-A α5β3γ2 oocyte” value [1] was 1.98 and the pKi [2] was 7.31.
